# System: endogenous interferon
# Set-up: species or system non-linear white mice
# Conditions: mouse, in vivo, ip
substance,measurement,value
Poly I:C,Minimum Dose Inducing Interferon,5 µg/mL
same,Titer of ME Interferons,1638 ME
